Experiments:
Format in all cases: in vivo
Lolium multiflorum = experiment: post-emergence greenhouse test, LOLMU; details: 12.5 g ai/ha, 20 DAT, Table 4
From the text: (§1) For the post-emergence treatment, the test plants were first grown to a height of 3 to 20 cm, depending on the plant habit, and only then treated. Here, the herbicidal compositions were suspended or emulsified in water as distribution medium and sprayed using finely distributing nozzles.
(§2) The respective herbicides A and/or safener were formulated as 10% by weight strength suspension concentrate and introduced to the spray liquor with the amount of solvent system used for applying the active compound. Herbicide B and/or safener were used as commercially available formulations and introduced to the spray liquor with the amount of solvent system used for applying the active compound. In the examples, the solvent used was water.
(§3) The test period extended over 21 days. During this time, the plants were tended, and their response to the treatments with active compound was evaluated.
(§4) The evaluation for the damage caused by the chemical compositions was carried out using a scale from 0 to 100%, compared to the untreated control plants. Here, 0 means no damage and 100 means complete destruction of the plants.

Chenopodium album [1] = experiment: post-emergence greenhouse test, CHEAL
From the text: as §1, §2, §3, §4

Galium aparine [2] = experiment: post-emergence greenhouse test, GALAP
From the text: as §1, §2, §3, §4

Matricaria inermis [3] = experiment: post-emergence greenhouse test, MATIN; details: 6.25 g ai/ha, 20 DAT, Table 4
From the text: as §1, §2, §3, §4

Digitaria sanguinalis = experiment: post-emergence greenhouse test, DIGSA; details: 3.13 g ai/ha, 20 DAT, Table 4
From the text: as §1, §2, §3, §4

Setaria faberii [4] = experiment: post-emergence greenhouse test, SETFA; details: 12.5 g ai/ha, 20 DAT, Table 4
From the text: as §1, §2, §3, §4

Kochia scoparia [5] = experiment: pre-emergence greenhouse test, KCHSC; details: 12.5 g ai/ha
From the text: (§5) For the pre-emergence treatment, directly after sowing the active compounds, which had been suspended or emulsified in water, were applied by means of finely distributed nozzles. The containers were irrigated gently to promote germination and growth and subsequently covered with transparent plastic hoods until plant had rooted. This cover caused uniform germination of the tests plants, unless this was adversely affected by active compounds.
as §2, §3, §4

Setaria italica [6] = experiment: pre-emergence greenhouse test, SETIT; details: 25 g ai/ha
From the text: as §5, §2, §3, §4

Alopecurus myosuroides [7] = experiment: post-emergence greenhouse test, ALOMY
From the text: as §1, §2, §3, §4

Setaria faberii [8] = experiment: pre-emergence greenhouse test, SETFA
From the text: as §5, §2, §3, §4

Matricaria inermis [9] = experiment: pre-emergence greenhouse test, MATIN; details: 6.25 g ai/ha
From the text: as §5, §2, §3, §4

Solanum nigrum = experiment: post-emergence greenhouse test, SOLNI; details: 13 g ai/ha
From the text: as §1, §2, §3, §4

Sorghum halepense [10] = experiment: pre-emergence greenhouse test, SORHA; details: 3.13 g ai/ha
From the text: as §5, §2, §3, §4

Chenopodium album [11] = experiment: pre-emergence greenhouse test, CHEAL; details: 3.13 g ai/ha
From the text: as §5, §2, §3, §4

Galium aparine [12] = experiment: pre-emergence greenhouse test, GALAP; details: 3.13 g ai/ha
From the text: as §5, §2, §3, §4

Alopecurus myosuroides [13] = experiment: pre-emergence greenhouse test, ALOMY; details: 12.5 g ai/ha
From the text: as §5, §2, §3, §4

Bromus inermis = experiment: pre-emergence greenhouse test, BROIN; details: 3.13 g ai/ha
From the text: as §5, §2, §3, §4

Setaria lutescens = experiment: post-emergence greenhouse test, SETLU; details: 1.6 g ai/ha
From the text: as §1, §2, §3, §4

Ambrosia artemisifolia = experiment: pre-emergence greenhouse test, AMBEL; details: 12.5 g ai/ha
From the text: as §5, §2, §3, §4

Sorghum halepense [14] = experiment: post-emergence greenhouse test, SORHA; details: 1.6 g ai/ha
From the text: as §1, §2, §3, §4

Xanthium strumarium = experiment: post-emergence greenhouse test, XANST
From the text: as §1, §2, §3, §4

Kochia scoparia [15] = experiment: post-emergence greenhouse test, KCHSC; details: 6.25 g ai/ha
From the text: as §1, §2, §3, §4

Polygonum convolvulus = experiment: post-emergence greenhouse test, POLCO
From the text: as §1, §2, §3, §4

Setaria italica [16] = experiment: post-emergence greenhouse test, SETIT
From the text: as §1, §2, §3, §4

Ipomoea purpurea = experiment: pre-emergence greenhouse test, PHBPU
From the text: as §5, §2, §3, §4

Echinochloa crus-galli = experiment: post-emergence greenhouse test, ECHCG
From the text: as §1, §2, §3, §4

With C#CCN1C(=O)C(F)(F)Oc2cc(F)c(-n3c(=O)n(C)c(=S)n(C)c3=O)cc21 [compound V-1] as the molecule, how does the “observed activity in % destruction” value (Lolium multiflorum) read?
The value was 85%.

What about the “observed activity in % destruction” value (Chenopodium album [1]; 6.25 g ai/ha, 20 DAT, Table 4) of the same molecule?
The value was 60%.

What about the “observed activity in % destruction” value (Galium aparine [2]; 3.13 g ai/ha, 20 DAT, Table 4) of the same molecule?
Its value is 30%.

And the “observed activity in % destruction” value (Matricaria inermis [3])?
Its value is 90%.

What about the “observed activity in % destruction” value (Digitaria sanguinalis) of the same molecule?
The value was 35%.

And the “observed activity in % destruction” value (Setaria faberii [4])?
Its value is 70%.

What does the source list for CC(C)N(C)S(=O)(=O)NC(=O)c1cc(-n2c(=O)cc(C(F)(F)F)n(C)c2=O)c(F)cc1Cl [saflufenacil]?
observed % activity (Kochia scoparia [5]; 8 DAT): 75%; observed % activity (Kochia scoparia [5]; 20 DAT): 80%; observed % activity (Setaria italica [6]; 8 DAT): 40%; observed % activity (Setaria italica [6]; 20 DAT): 55%; observed % activity (Alopecurus myosuroides [7]; 1.6 g ai/ha, 8 DAT): 0%; observed % activity (Alopecurus myosuroides [7]; 1.6 g ai/ha, 20 DAT): 0%; observed % activity (Alopecurus myosuroides [7]; 6.25 g ai/ha, 8 DAT): 20%; observed % activity (Alopecurus myosuroides [7]; 6.25 g ai/ha, 20 DAT): 0%; observed % activity (Alopecurus myosuroides [7]; 13 g ai/ha, 8 DAT): 35%; observed % activity (Alopecurus myosuroides [7]; 13 g ai/ha, 20 DAT): 15%; observed % activity (Chenopodium album [1]; 6.25 g ai/ha, 8 DAT): 35%; observed % activity (Chenopodium album [1]; 6.25 g ai/ha, 20 DAT): 35%; observed % activity (Chenopodium album [1]; 13 g ai/ha, 8 DAT): 45%; observed % activity (Chenopodium album [1]; 13 g ai/ha, 20 DAT): 35%; observed % activity (Setaria faberii [8]; 6.25 g ai/ha, 8 DAT): 0%; observed % activity (Setaria faberii [8]; 6.25 g ai/ha, 20 DAT): 35%; observed % activity (Setaria faberii [8]; 12.5 g ai/ha, 8 DAT): 20%; observed % activity (Setaria faberii [8]; 12.5 g ai/ha, 20 DAT): 35%; observed % activity (Matricaria inermis [9]; 8 DAT): 95%; observed % activity (Matricaria inermis [9]; 20 DAT): 98%; observed % activity (Galium aparine [2]; 1.6 g ai/ha, 8 DAT): 15%; observed % activity (Galium aparine [2]; 1.6 g ai/ha, 20 DAT): 20%; observed % activity (Galium aparine [2]; 3.1 g ai/ha, 8 DAT): 25%; observed % activity (Galium aparine [2]; 3.1 g ai/ha, 20 DAT): 20%; observed % activity (Galium aparine [2]; 6.25 g ai/ha, 8 DAT): 35%; observed % activity (Galium aparine [2]; 6.25 g ai/ha, 20 DAT): 30%; observed % activity (Galium aparine [2]; 13 g ai/ha, 8 DAT): 80%; observed % activity (Galium aparine [2]; 13 g ai/ha, 20 DAT): 70%; observed % activity (Solanum nigrum; 8 DAT): 85%; observed % activity (Solanum nigrum; 20 DAT): 85%; observed % activity (Sorghum halepense [10]; 8 DAT): 0%; observed % activity (Sorghum halepense [10]; 20 DAT): 0%; observed % activity (Chenopodium album [11]; 8 DAT): 75%; observed % activity (Chenopodium album [11]; 20 DAT): 60%; observed % activity (Galium aparine [12]; 8 DAT): 40%; observed % activity (Galium aparine [12]; 20 DAT): 40%; observed % activity (Alopecurus myosuroides [13]; 8 DAT): 30%; observed % activity (Alopecurus myosuroides [13]; 20 DAT): 30%; observed % activity (Bromus inermis; 8 DAT): 0%; observed % activity (Bromus inermis; 20 DAT): 0%; observed % activity (Setaria lutescens; 8 DAT): 30%; observed % activity (Setaria lutescens; 20 DAT): 10%; observed % activity (Ambrosia artemisifolia; 8 DAT): 70%; observed % activity (Ambrosia artemisifolia; 20 DAT): 80%; observed % activity (Sorghum halepense [14]; 8 DAT): 20%; observed % activity (Sorghum halepense [14]; 20 DAT): 35%; observed % activity (Xanthium strumarium; 1.6 g ai/ha, 8 DAT): 35%; observed % activity (Xanthium strumarium; 1.6 g ai/ha, 20 DAT): 45%; observed % activity (Xanthium strumarium; 3.1 g ai/ha, 8 DAT): 70%; observed % activity (Xanthium strumarium; 3.1 g ai/ha, 20 DAT): 75%; observed % activity (Xanthium strumarium; 6.25 g ai/ha, 8 DAT): 70%; observed % activity (Xanthium strumarium; 6.25 g ai/ha, 20 DAT): 80%; observed % activity (Kochia scoparia [15]; 8 DAT): 60%; observed % activity (Kochia scoparia [15]; 20 DAT): 30%; observed % activity (Polygonum convolvulus; 1.6 g ai/ha, 8 DAT): 35%; observed % activity (Polygonum convolvulus; 1.6 g ai/ha, 20 DAT): 30%; observed % activity (Polygonum convolvulus; 13 g ai/ha, 8 DAT): 95%; observed % activity (Polygonum convolvulus; 13 g ai/ha, 20 DAT): 98%; observed % activity (Setaria italica [16]; 3.1 g ai/ha, 8 DAT): 30%; observed % activity (Setaria italica [16]; 3.1 g ai/ha, 20 DAT): 15%; observed % activity (Setaria italica [16]; 6.25 g ai/ha, 8 DAT): 30%; observed % activity (Setaria italica [16]; 6.25 g ai/ha, 20 DAT): 20%; observed % activity (Ipomoea purpurea; 3.13 g ai/ha, 8 DAT): 45%; observed % activity (Ipomoea purpurea; 3.13 g ai/ha, 20 DAT): 50%; observed % activity (Ipomoea purpurea; 6.25 g ai/ha, 8 DAT): 80%; observed % activity (Ipomoea purpurea; 6.25 g ai/ha, 20 DAT): 80%; observed % activity (Echinochloa crus-galli; 1.6 g ai/ha, 8 DAT): 10%; observed % activity (Echinochloa crus-galli; 1.6 g ai/ha, 20 DAT): 0%; observed % activity (Echinochloa crus-galli; 6.25 g ai/ha, 8 DAT): 10%; observed % activity (Echinochloa crus-galli; 6.25 g ai/ha, 20 DAT): 0%; observed % activity (Echinochloa crus-galli; 13 g ai/ha, 8 DAT): 15%; observed % activity (Echinochloa crus-galli; 13 g ai/ha, 20 DAT): 0%
